Legend:
LXRα = molecular target: T1, LXRα (Homo sapiens, UniProt Q13133); conditions: fold relative to DMSO
T1 sequence (Q13133 1-447): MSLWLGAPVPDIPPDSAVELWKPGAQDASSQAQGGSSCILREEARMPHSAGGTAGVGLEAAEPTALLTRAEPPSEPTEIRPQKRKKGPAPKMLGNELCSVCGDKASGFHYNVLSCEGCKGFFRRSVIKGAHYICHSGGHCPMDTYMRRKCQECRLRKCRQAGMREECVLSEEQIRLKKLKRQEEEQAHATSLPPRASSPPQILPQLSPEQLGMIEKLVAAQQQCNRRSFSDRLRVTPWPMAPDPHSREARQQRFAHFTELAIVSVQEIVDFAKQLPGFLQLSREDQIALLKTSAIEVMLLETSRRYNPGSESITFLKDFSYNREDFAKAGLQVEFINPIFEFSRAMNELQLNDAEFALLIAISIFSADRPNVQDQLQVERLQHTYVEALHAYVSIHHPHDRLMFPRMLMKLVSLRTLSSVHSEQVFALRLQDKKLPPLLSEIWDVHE

mouse liver mRNA = assay: Northern blot analysis of hepatic gene expression in treated mice; format: in vivo
Procedure: FIG. 9. Northern blot analysis. Total RNA was isolated from the tissues indicated from mice (A,B,C) and hamsters (D). The numerical data shown with each figure represents the fold increase (+) or decrease (-) of expression relative to corresponding vehicle-treated controls. (E) HepG2 cells were incubated in culture media with or without cycloheximide (cyclohex). Total RNA extraction and purification for Northern blot analysis was accomplished using the TRI reagent (Molecular Research Center). […] Mouse gene expression was assessed by Northern blot analysis using random primed, ^32P-labeled, cDNA probes that were generated using the primers described in FIG. 11. Hybridization signals were quantified using a phosphoimager (Molecular Dynamics) and standardized against GAPDH controls. Mouse cDNA probes for the numerous genes analyzed were prepared using primers from mouse liver or intestinal cDNA as template. The SREBP-2 cDNA was a gift from J. D. Horton (University of Texas Southwestern Medical Center, Dallas); mouse and hamster CYP7[…]. W. Russell (University of Texas Southwestern Medical Center, Dallas). SCD-1 was a gift from J. Ntambi (University of Wisconsin, Madison), and apoD was kindly provided by […] (University of Quebec, Montreal).

[1] = system: LXRα/β−/− mice liver mRNA; assay: Northern blot analysis of hepatic mRNA in LXRα/β−/− mice; format: in vivo, mouse
Procedure: FIG. 10. […] Pooled plasma (50 μL from each of five mice per group) was fractionated and lipids analyzed as described. Shown are the concentrations for (A) FPLC triglyceride, (B) FPLC phospholipid, and (C) hepatic triglyceride. (D) Northern blot analysis of hepatic SREEP-I, SREBP-2, SCD-1, FAS, and ACC mRNA levels.

Gal4-LXRα = Gal4-LXRα (Homo sapiens, UniProt Q13133); assay: HEK293 Gal4-nuclear receptor chimera luciferase reporter assay; format: cell-based; conditions: T0901317 1 μM, T0314407 5 μM, 20 h
Sequence of Gal4-LXRα (P04386 1-147 partner limits assumed, one chain of several): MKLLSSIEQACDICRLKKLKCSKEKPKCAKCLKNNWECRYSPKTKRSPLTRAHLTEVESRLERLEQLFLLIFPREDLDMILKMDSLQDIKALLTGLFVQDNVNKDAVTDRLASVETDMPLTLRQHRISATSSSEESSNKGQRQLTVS
From the text: (§1) FIG. 7. (A) Dose responses to LXR ligands in an HEK293 transient transfection assay using a wild-type LXRα expression plasmid and a luciferase reporter gene containing two copies of an LXR response element. DMSO treatments were used to derive the basal level of activation. […] HEK293 cells were cotransfected with a luciferase reporter gene containing four copies of the Gal4 DNA-binding site and the various chimeric Gal4 (DNA-binding domain)-nuclear receptor (ligand-binding domain) proteins shown.
(§2) HEK293 cells were cotransfected with a luciferase reporter gene and the various Gal4-nuclear receptor chimeric constructs shown and a β-galactosidase (β-gal) expression vector for normalization. Transfected cells were treated with the indicated compounds for 20 h before being harvested. Transfection data and luciferase results are normalized to β-gal and expressed as the fold-induction relative to DMSO controls.
(§3) PXR, a nuclear receptor involved in the CYP3A-mediated metabolism of a diverse collection of xenobiotics, is known to be activated by a large number of synthetic compounds (Jones et al., Mol. Endocrinol. 14:27-39 (2000)).

Gal4-LXRβ = Gal4-LXRβ (Homo sapiens, UniProt P55055); assay: as above; format: cell-based; conditions: T0901317 1 μM, T0314407 5 μM, 20 h
Sequence of Gal4-LXRβ (P55055 222-460 limits assumed): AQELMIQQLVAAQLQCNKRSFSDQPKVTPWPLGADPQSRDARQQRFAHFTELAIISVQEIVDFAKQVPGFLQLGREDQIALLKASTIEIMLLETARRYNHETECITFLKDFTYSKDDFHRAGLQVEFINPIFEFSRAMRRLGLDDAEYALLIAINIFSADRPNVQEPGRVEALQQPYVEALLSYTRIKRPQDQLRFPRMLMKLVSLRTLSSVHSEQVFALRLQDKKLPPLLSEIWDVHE
Sequence of Gal4-LXRβ (P04386 1-147 partner limits assumed): as the sequence (P04386 1-147 partner limits assumed, one chain of several) above
From the text: as §1, §2, §3

SMILES: O=S(=O)(c1ccccc1)N(CC(F)(F)F)c1ccc(C(O)(C(F)(F)F)C(F)(F)F)cc1 [T0901317, N-(2,2,2-trifluoro-ethyl)-N-[4-(2,2,2-trifluoro-1-hydroxy-1-trifluoromethyl-ethyl)-phenyl]-benzenesulfonamide]
- induction of transcriptional activity of LXRα (LXRα): eightfold
- apoAI, apoAII, apoD, apoE, MTP and NaTCP gene expression (mouse liver mRNA): remained unaffected
- steady-state mRNA levels of CYP7A1, SCD-1, and SREBP-1 (mouse liver mRNA): increased in a dose-dependent manner
- transcript level of 3-hydroxy-3-methylglutaryl coenzyme A synthase (HMG CoA S) (mouse liver mRNA): consistently reduced
- transcript level of squalene synthase (SQS) (mouse liver mRNA): consistently reduced
- SR-BI, apoCIII and DCAT transcript levels (mouse liver mRNA; data not shown): did not appear to vary in level
- hepatic ACC gene activity (Northern blot) (mouse liver mRNA; fold increase vs vehicle): twofold
- hepatic FAS gene activity (Northern blot) (mouse liver mRNA; fold increase vs vehicle): threefold
- hepatic SCD-1 gene activity (Northern blot) (mouse liver mRNA; fold increase vs vehicle): up to ninefold
- regulation of the SREBP-1, SCD-1, FAS, or ACC gene [1]: lack of regulation
- transcriptional activation of Gal4-LXRα (Gal4-LXRα): highest activity
- transactivation of chimeric Gal4-LXRβ (Gal4-LXRβ): transactivation was also noted
